Assays:
[1] = target: T1, Muscarinic acetylcholine receptor M3 (Homo sapiens, UniProt P20309); test: biochemical; format: cell-based, HEK-293T
Target sequence in this assay (P20309 whole entry): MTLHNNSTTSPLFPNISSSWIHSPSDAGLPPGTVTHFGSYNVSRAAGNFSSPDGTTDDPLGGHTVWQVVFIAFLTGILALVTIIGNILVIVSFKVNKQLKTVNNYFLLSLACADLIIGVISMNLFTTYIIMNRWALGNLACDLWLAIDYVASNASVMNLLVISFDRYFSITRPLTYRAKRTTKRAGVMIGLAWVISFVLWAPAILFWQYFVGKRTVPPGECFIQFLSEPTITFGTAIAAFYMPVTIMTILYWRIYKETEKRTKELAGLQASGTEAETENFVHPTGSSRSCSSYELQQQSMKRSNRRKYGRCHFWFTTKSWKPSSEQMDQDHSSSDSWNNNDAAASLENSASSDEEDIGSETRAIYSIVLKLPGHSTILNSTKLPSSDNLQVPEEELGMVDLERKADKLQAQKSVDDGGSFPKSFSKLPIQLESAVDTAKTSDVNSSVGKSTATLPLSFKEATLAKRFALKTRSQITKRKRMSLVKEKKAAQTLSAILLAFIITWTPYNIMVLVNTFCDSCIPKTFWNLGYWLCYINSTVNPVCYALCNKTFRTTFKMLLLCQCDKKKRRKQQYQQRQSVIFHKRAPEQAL
Description: Binding affinity to wild type human M3 receptor expressed in HEK293T cells up to 24 hrs by radioligand displacement assay

[2] = tested on: Muscarinic acetylcholine receptor M3 (Homo sapiens), P20309 [E228A]; conditions: HEK-293T
[3] = tested on: Muscarinic acetylcholine receptor M3 (Homo sapiens), P20309 [R133A]; conditions: HEK-293T
[4] = tested on: Muscarinic acetylcholine receptor M3 (Homo sapiens), P20309 [F222A]; conditions: HEK-293T
[5] = tested on: Muscarinic acetylcholine receptor M3 (Homo sapiens), P20309 [K213A]; conditions: HEK-293T
Muscarinic acetylcholine receptor M3 (Homo sapiens), P20309 [K213A], sequence (P20309 whole entry K213A): as the sequence (P20309 whole entry) above, with K213A counted along it

[6] = tested on: Muscarinic acetylcholine receptor M3 (Homo sapiens), P20309 [E220A]; conditions: HEK-293T
Muscarinic acetylcholine receptor M3 (Homo sapiens), P20309 [E220A], sequence (P20309 whole entry E220A): as the sequence (P20309 whole entry) above, with E220A counted along it

[7] = target: T1, Muscarinic acetylcholine receptor M3; conditions: HEK-293T
Target sequence in this assay (P20309 whole entry, looked up): as the sequence (P20309 whole entry) above
Description: Binding affinity to wild type human M3 receptor expressed in HEK293T cells assessed as half life by radioligand displacement assay

[8] = tested on: Muscarinic acetylcholine receptor M3 (Homo sapiens), P20309 [F225A]; conditions: HEK-293T
Muscarinic acetylcholine receptor M3 (Homo sapiens), P20309 [F225A], sequence (P20309 whole entry F225A): as the sequence (P20309 whole entry) above, with F225A counted along it

[9] = tested on: Muscarinic acetylcholine receptor M3 (Homo sapiens), P20309 [K523A]; conditions: HEK-293T
Muscarinic acetylcholine receptor M3 (Homo sapiens), P20309 [K523A], sequence (P20309 whole entry K523A): as the sequence (P20309 whole entry) above, with K523A counted along it

[10] = tested on: Muscarinic acetylcholine receptor M3 (Homo sapiens), P20309 [D518A]; conditions: HEK-293T
Muscarinic acetylcholine receptor M3 (Homo sapiens), P20309 [D518A], sequence (P20309 whole entry D518A): as the sequence (P20309 whole entry) above, with D518A counted along it

[11] = tested on: Muscarinic acetylcholine receptor M3 (Homo sapiens), P20309 [Q224A]; conditions: HEK-293T
Muscarinic acetylcholine receptor M3 (Homo sapiens), P20309 [Q224A], sequence (P20309 whole entry Q224A): as the sequence (P20309 whole entry) above, with Q224A counted along it

Muscarinic acetylcholine receptor M3 (Homo sapiens), P20309 [R133A], sequence (P20309 whole entry R133A): as the sequence (P20309 whole entry) above, with R133A counted along it
Muscarinic acetylcholine receptor M3 (Homo sapiens), P20309 [E228A], sequence (P20309 whole entry E228A): as the sequence (P20309 whole entry) above, with E228A counted along it
Muscarinic acetylcholine receptor M3 (Homo sapiens), P20309 [F222A], sequence (P20309 whole entry F222A): as the sequence (P20309 whole entry) above, with F222A counted along it

C[N+]1(C)[C@@H]2C[C@H](OC(=O)C(O)(c3ccccc3)c3ccccc3)C[C@H]1[C@@H]1O[C@@H]12
Ki [1]: 63.1 pM

CC(C(=O)O[C@H]1C[C@@H]2[C@H]3O[C@H]3[C@H](C1)[N+]2(C)C)(c1cccs1)c1cccs1
Ki [1]: 50.1 pM

C[N+]1(C)[C@@H]2C[C@@H](OC(=O)C(O)(c3cccs3)c3cccs3)C[C@H]1[C@@H]1O[C@@H]12
T1/2 [2]: 20.1 h
T1/2 [3]: 25.4 h
T1/2 [4]: 23 h
T1/2 [5]: 20.4 h
T1/2 [6]: 31.7 h
T1/2 [7]: 24.5 h
T1/2 [8]: 13.8 h
T1/2 [9]: 12.5 h
T1/2 [10]: 22.6 h
T1/2 [11]: 12.4 h

C[N+]1(C)[C@@H]2C[C@H](OC(=O)C(O)c3cccs3)C[C@H]1[C@@H]1O[C@@H]12 (stereo partly specified)
Ki [1]: 5010 pM

COC(C(=O)O[C@H]1C[C@@H]2[C@H]3O[C@H]3[C@H](C1)[N+]2(C)C)(c1cccs1)c1cccs1
Ki [1]: 1580 pM

C[N+]1(C)[C@@H]2C[C@H](OC(=O)C(O)c3ccccc3)C[C@H]1[C@@H]1O[C@@H]12 (stereo partly specified)
Ki [1]: 2000 pM

C[N+]1(C)[C@@H]2C[C@H](OC(=O)C(CO)(c3cccs3)c3cccs3)C[C@H]1[C@@H]1O[C@@H]12
Ki [1]: 316 pM

Source: ChEMBL document CHEMBL3091362, “Molecular basis for the long duration of action and kinetic selectivity of tiotropium for the muscarinic M3 receptor” (J Med Chem, 2013)
